In PubChem BioAssay AID248 (DTP/NCI, 2004):
Values joined by “and” are separate entries in the source; they are usually repeats but may differ in a detail not shown here. Equal values may be shown once. Inconclusive results and toxic doses are left out. Rule as the data show it: active = T/C of 150% or more; inactive = T/C below 125%.

Test system: L1210 leukemia ip in BDF1 mice, survival T/C
Test: NCI In Vivo Anticancer Drug Screen. Data for tumor model L1210 Leukemia (intraperitoneal) in B6D2F1 (BDF1) mice
Settings: higher = longer survival
How it was run: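 Mice bearing the transplanted tumor received compound or vehicle. Survival of the treated group was divided by that of the vehicle-treated control group to give the ratio.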

Measured: T/C

Nc1nc2n[nH]nc2c(=O)[nH]1
active: endpoint: mean survival time, dose: 89.4 mg/kg/injection, schedule: Q01DX Z (ip), vehicle: carboxymethylcellulose (CMC) 154 % of control | endpoint: mean survival time, dose: 90.0 mg/kg/injection, schedule: Q01DX009 (ip), vehicle: other 150 % of control | endpoint: mean survival time, dose: 90.0 mg/kg/injection, schedule: Q01DX015 (ip), vehicle: carboxymethylcellulose (CMC) 155 % of control | endpoint: mean survival time, dose: 90.0 mg/kg/injection, schedule: Q## X015 (ip), vehicle: carboxymethylcellulose (CMC) 155 % of control | endpoint: mean survival time, dose: 100.0 mg/kg/injection, schedule: Q01DX009 (ip), vehicle: other 152 % of control | endpoint: mean survival time, dose: 100.0 mg/kg/injection, schedule: Q01DX009 (ip), vehicle: water 154 % of control | endpoint: mean survival time, dose: 100.0 mg/kg/injection, schedule: Q01DX Z (im), vehicle: water 160 % of control | endpoint: mean survival time, dose: 111.75 mg/kg/injection, schedule: Q01DX Z (ip), vehicle: carboxymethylcellulose (CMC) 160 % of control | endpoint: mean survival time, dose: 125.0 mg/kg/injection, schedule: Q## X003 (ip), vehicle: carboxymethylcellulose (CMC) 152 % of control and 155 % of control | endpoint: mean survival time, dose: 135.0 mg/kg/injection, schedule: Q01DX015 (ip), vehicle: carboxymethylcellulose (CMC) 152 % of control | endpoint: mean survival time, dose: 135.0 mg/kg/injection, schedule: Q## X015 (ip), vehicle: carboxymethylcellulose (CMC) 152 % of control | endpoint: mean survival time, dose: 150.0 mg/kg/injection, schedule: Q01DX009 (sc), vehicle: carboxymethylcellulose (CMC) 150 % of control | endpoint: mean survival time, dose: 150.0 mg/kg/injection, schedule: Q01DX Z (ip), vehicle: carboxymethylcellulose (CMC) 156 % of control | endpoint: mean survival time, dose: 200.0 mg/kg/injection, schedule: Q01DX009 (ip), vehicle: water 152 % of control and 160 % of control | endpoint: mean survival time, dose: 225.0 mg/kg/injection, schedule: Q01DX015 (ip), vehicle: clinical formulation 156 % of control | endpoint: mean survival time, dose: 250.0 mg/kg/injection, schedule: Q06DX003 (ip), vehicle: carboxymethylcellulose (CMC) 151 % of control | endpoint: mean survival time, dose: 250.0 mg/kg/injection, schedule: Q## X003 (ip), vehicle: carboxymethylcellulose (CMC) 155 % of control | endpoint: mean survival time, dose: 300.0 mg/kg/injection, schedule: Q01DX009 (sc), vehicle: carboxymethylcellulose (CMC) 151 % of control | endpoint: mean survival time, dose: 500.0 mg/kg/injection, schedule: Q01DX001 (ip), vehicle: carboxymethylcellulose (CMC) 150 % of control | endpoint: mean survival time, dose: 750.0 mg/kg/injection, schedule: Q10DX003 (ip), vehicle: carboxymethylcellulose (CMC) 157 % of control | endpoint: median survival time, dose: 200.0 mg/kg/injection, schedule: Q01DX009 (ip), vehicle: other 150 % of control
inactive: endpoint: mean survival time, dose: 87.0 mg/kg/injection, schedule: Q07DX Z (ip), vehicle: water 121 % of control | endpoint: mean survival time, dose: 100.0 mg/kg/injection, schedule: Q01DX001 (ip), vehicle: steriod suspending solution 118 % of control | endpoint: mean survival time, dose: 100.0 mg/kg/injection, schedule: Q#A X Z (ip), vehicle: carboxymethylcellulose (CMC) 115 % of control | endpoint: mean survival time, dose: 125.0 mg/kg/injection, schedule: Q01DX001 (sc), vehicle: carboxymethylcellulose (CMC) 109 % of control | endpoint: mean survival time, dose: 175.0 mg/kg/injection, schedule: Q01DX001 (ip), vehicle: water 119 % of control and 121 % of control | endpoint: mean survival time, dose: 175.0 mg/kg/injection, schedule: Q07DX Z (ip), vehicle: water 116 % of control | endpoint: mean survival time, dose: 200.0 mg/kg/injection, schedule: Q01DX001 (ip), vehicle: steriod suspending solution 120 % of control | endpoint: mean survival time, dose: 200.0 mg/kg/injection, schedule: Q01DX009 (ip), vehicle: saline 102 % of control | endpoint: mean survival time, dose: 200.0 mg/kg/injection, schedule: Q01DX Z (im), vehicle: carboxymethylcellulose (CMC) 103 % of control | endpoint: mean survival time, dose: 200.0 mg/kg/injection, schedule: Q01DX Z (sc), vehicle: carboxymethylcellulose (CMC) 124 % of control | endpoint: mean survival time, dose: 202.0 mg/kg/injection, schedule: Q01DX009 (ip), vehicle: other 98 % of control | endpoint: mean survival time, dose: 202.5 mg/kg/injection, schedule: Q01DX015 (ip), vehicle: carboxymethylcellulose (CMC) 97 % of control | endpoint: mean survival time, dose: 202.5 mg/kg/injection, schedule: Q## X015 (ip), vehicle: carboxymethylcellulose (CMC) 97 % of control | endpoint: mean survival time, dose: 223.5 mg/kg/injection, schedule: Q01DX Z (ip), vehicle: carboxymethylcellulose (CMC) 107 % of control | endpoint: mean survival time, dose: 250.0 mg/kg/injection, schedule: Q01DX001 (sc), vehicle: carboxymethylcellulose (CMC) 113 % of control | endpoint: mean survival time, dose: 300.0 mg/kg/injection, schedule: Q01DX009 (ip), vehicle: other 119 % of control | endpoint: mean survival time, dose: 300.0 mg/kg/injection, schedule: Q03DX Z (ip), vehicle: water 121 % of control | endpoint: mean survival time, dose: 350.0 mg/kg/injection, schedule: Q01DX001 (ip), vehicle: water 116 % of control and 121 % of control | endpoint: mean survival time, dose: 350.0 mg/kg/injection, schedule: Q07DX Z (ip), vehicle: water 109 % of control | endpoint: mean survival time, dose: 400.0 mg/kg/injection, schedule: Q01DX Z (sc), vehicle: carboxymethylcellulose (CMC) 100 % of control | endpoint: mean survival time, dose: 500.0 mg/kg/injection, schedule: Q## X003 (ip), vehicle: carboxymethylcellulose (CMC) 95 % of control | endpoint: mean survival time, dose: 700.0 mg/kg/injection, schedule: Q01DX001 (ip), vehicle: water 97 % of control | endpoint: median survival time, dose: 12.5 mg/kg/injection, schedule: Q01DX009 (ip), vehicle: other 122 % of control | endpoint: median survival time, dose: 25.0 mg/kg/injection, schedule: Q01DX009 (ip), vehicle: other 122 % of control
